The values that follow come from US20260131007A1, “Mannose 6-Phosphate Receptor Binding Compounds for the Degradation of Extracellular Proteins” (Avilar Therapeutics, Inc., priority 2023, published 2026).

The target in experiment [1] is T1, hIGF-IIR and IgG1 (ternary complex) (Homo sapiens, UniProt P01857+P11717).
T1 construct: purchased R&D Systems 6418-GR
In words: HTRF-based ternary complex formation assay for hIGF-IIR targeting Extracellular Protein Degraders. It is filed as binding. The text has this:
The ternary complex formation assay is designed to identify and determine the potency of Extracellular Protein Degrader molecules which can induce the formation of ternary complex between the Extracellular Protein Degrader hIGF-IIR. Titrating Extracellular Protein Degrader to fixed amount of hIGF-IIR results in a bell-shaped curve (except molecules whose binary complex affinity between Extracellular Protein Degrader and hIGF-IIR). The peak mean represents Extracellular Protein Degrader concentration at which maximum ternary complex is formed. Too much or too little Extracellular Protein Degrader leads to decreased ternary complex formation due to formation of binary complex (Hook effect). Dose response of Extracellular Protein Degrader compounds (16-point 3-fold dilution series, 100X) were prepared by Echo Acoustic Liquid Handler (Beckman Coulter Life Sciences) using 384-well LDV microplate. Then 200 nL of the solutions were transferred to an OptiPlate 384-well microplate (PerkinElmer, 6007290). To the assay plate, 10 μL working solution containing 60 nM of Biotinylated-IgG1 (Viva 20211108) and 60 nM of His-tagged hIGF-IIR (R&D Systems, 6418-GR) in assay buffer 50 mM Tris, pH 7.5, 150 mM NaCl, 50 mM CaCl2, 0.01% Tween-20 were added. The plate was incubated for 60 min at room temperature with gentle shaking to allow molecular interaction to reach equilibration. Following this, 10 μL of HTRF detection solution containing 15 nM Streptavidin-d2 (PerkinElmer, 610SADLA) and 0.7 nM MAb Anti 6HIS—Tb cryptate (PerkinElmer, 61HISTLA) in PPI Terbium detection buffer (PerkinElmer, 61DB10RDF) were added. The assay plate was incubated at room temperature with gentle shaking for 60 min to allow HTRF signal to develop. The plate was gently spun on a centrifuge then placed on an EnVision plate reader (Perkin Elmer, EnVision 2104) to read fluorescence ratio of 665 nm/615 nm. Data were analyzed by fitting with Bell-shaped non-linear regression model using GraphPad Prism (GraphPad Software, LLC; version 9.4.1). Mean fluorescence intensity is graphed versus compound concentration and the EC50 for TCF is calculated from the inflection point of the curve (GraphPad).
(In general: TR-FRET usually uses a lanthanide donor and a delayed reading to cut background.)

Another experiment has as its system K562 cells. In words: Ternary complex formation (TCF) in K562 cells, flow cytometry with AF488-labeled human IgG. It is filed as cell-based. As to conditions: AF488-labeled human IgG 300 nM, 4° C., 1 hour. As for the experimental part:
K562 cells were seeded in 96-well assay plate using K562 cell medium, then compounds and AF488-labeled human IgG (final concentration of 300 nM) were added at 4° C. and incubated for 1 hour. Afterwards, the cells were washed once with 1×PBS+0.1% BSA (Cold) and centrifuged at 1000 rpm for 5 minutes. Next, cells were re-suspended in 150 μL 1×PBS+0.1% BSA and ran flow cytometry on iQue® Screener PLUS.
For orientation: Flow cytometry measures light scatter and fluorescence of single cells or particles in a stream.

A further experiment has as its system IgG. In words: Uptake and degradation in K562 cells (Western blot). Particulars: K562 cells treated with compound and IgG; FIG. 14-17. It is filed as cell-based, human. As for the experimental part: On day one, cells were harvested, counted, and seeded 1 million/well in 6 well plates for each cell line. On day two, cells were treated with compounds and IgG (Sigma, Cat #14506 dissolved in medium). Treated cells were washed three times with PBS, followed by addition of 200 μL of RIPA buffer (+HALT protease and phosphatase inhibitors) per well. Lysates were left on ice for 5 minutes then were collected into microcentrifuge tubes using a cell scraper. Lysates were then kept on a shaker for 30-60 minutes at 4° C. followed by centrifugation at 14,000 rpm at 4° C. for 15 minutes. Then, supernatants were transferred to fresh tubes and total protein concentration of each sample was determined using Pierce BCA kit. Next, 25 ug total protein of each sample was resolved on a 4-20% gels and transferred to PVDF membranes. Membranes were blocked in TBST+5% milk (made fresh) for one hour while shaking at room temperature. Then, the first antibody was added in TBST+5% milk at 4° C. overnight: a) Rabbit anti-human IgG, Abcam; Cat #ab181236-1:1000, b) anti-β-actin, Cell signaling Tech, Cat #3700S)-1:3000. On the next day, membranes were washed with TBST 10 minutes each for three times. Later, the second antibody was added in TBST+5% milk at room temperature over one hour: a) IRDye 800CW Goat anti Rabbit IgG, Licor, Cat #926-32211)-1:10,000; b) IRDye 680RD Goat anti Mouse IgG (Licor Cat #926-68078)-1:10,000. Then, membranes were washed with TBST 10 minutes each for three times. The results were detected by Licor. Data from the uptake and degradation assay is shown in FIG. 14, FIG. 15, FIG. 16, and FIG. 17.

Experiment [2] has as its target Biotinylated-IgG1 (Viva 20211108). Nature of the experiment: HTRF ternary complex formation: compound titrated into 60 nM biotinylated IgG1 + 60 nM His-tagged hIGF-IIR (R&D 6418-GR); grade read by the legend '<50 nM = ***'.
Experiment [3] deals with AF488-labeled human IgG (human). Nature of the experiment: flow cytometry, ternary complex formation on K562 cells at 4 C, compound + 300 nM AF488-labelled human IgG; grade read by the legend '50 nM < IC50 < 250 nM = **'.
For experiment [4] the target is unchanged. Nature of the experiment: flow cytometry, ternary complex formation on K562 cells at 4 C, compound + 300 nM AF488-labelled human IgG; grade read by the legend '<50 nM = ***'.
The mark [5] stands for this setting: biotinylated IgG1 and His-tagged hIGF-IIR, 60 nM each, read-out: TCF (HTRF) EC50.

Several values for one entry are separate records, joined by “and”; a condition that tells them apart may be missing. Identical values can stand only once. Like-named read-outs stand apart in the source and are kept apart here. Bridge positions count the residues as written; N and C are the ends. Square brackets hold non-standard residues; d marks the D form.

For the molecule `CC(C)C[C@@H]1NC(=O)[C@H](Cc2c[nH]cn2)NC(=O)[C@H](Cc2c[nH]c3ccccc23)NC(=O)[C@H](C)NC(=O)[C@@H]2CSSC[C@H](NC(=O)[C@H](Cc3c[nH]c4ccccc34)NC(=O)[C@H](C(C)C)NC(=O)[C@H](CC(C)C)NC(=O)[C@H](CCC(=O)O)NC(=O)CNC1=O)C(=O)N[C@@H]([C@@H](C)O)C(=O)N1CCC[C@@H]1C(=O)N1C[C@@H](NC(=O)COCCOCCOCC(=O)NC(COCCC(=O)NCCOCCn3cc([C@H]4O[C@H](CCP(=O)(O)O)[C@@H](O)[C@H](O)[C@@H]4O)nn3)(COCCC(=O)NCCOCCn3cc([C@H]4O[C@H](CCP(=O)(O)O)[C@@H](O)[C@H](O)[C@@H]4O)nn3)COCCC(=O)NCCOCCn3cc([C@H]4O[C@H](CCP(=O)(O)O)[C@@H](O)[C@H](O)[C@@H]4O)nn3)C[C@H]1C(=O)N[C@@H](CC(=O)O)C(=O)N2` [Compound 2], the EC50 (in experiment [1]; with K562 cells) was below 50 nM throughout. The “degradation of IgG (gel electrophoresis image)” value (“degradation” below) in the experiment with IgG is “degradation of IgG”.

With `CC(C)C[C@@H]1NC(=O)[C@H](Cc2c[nH]cn2)NC(=O)[C@H](Cc2c[nH]c3ccccc23)NC(=O)[C@H](C)NC(=O)[C@@H]2CSSC[C@H](NC(=O)[C@H](Cc3c[nH]c4ccccc34)NC(=O)[C@H](C(C)C)NC(=O)[C@H](CC(C)C)NC(=O)[C@H](CCC(=O)O)NC(=O)CNC1=O)C(=O)N[C@@H]([C@@H](C)O)C(=O)N1CCC[C@@H]1C(=O)N1C[C@@H](NC(=O)CCOCCOCCOCCOCCOCCOCCOCCOCCn3cc([C@H]4O[C@H](CCP(=O)(O)O)[C@@H](O)[C@H](O)[C@@H]4O)nn3)C[C@H]1C(=O)N[C@@H](CC(=O)O)C(=O)N2` [Compound 8], the EC50 (in experiment [1] (setting [5]); with K562 cells) was below 50 nM in each case. Further, the “degradation” value with IgG was “degradation of IgG”.

In turn, `COc1ccc(OC2O[C@H](CCP(=O)(O)Cc3cn(CCOCCNC(=O)CCOCC(COCCC(=O)NCCOCCn4cc(CP(=O)(O)CC[C@@H]5OC(Oc6ccc(OC)cc6)[C@H](O)[C@H](O)[C@H]5O)nn4)(COCCC(=O)NCCOCCn4cc(CP(=O)(O)CC[C@H]5OC(Oc6ccc(OC)cc6)[C@@H](O)[C@@H](O)[C@@H]5O)nn4)NC(=O)COCCOCCOCC(=O)N[C@H]4C[C@H]5C(=O)N[C@@H](CC(=O)O)C(=O)N[C@H]6CSSC[C@H](NC(=O)[C@H](Cc7c[nH]c8ccccc78)NC(=O)[C@H](C(C)C)NC(=O)[C@H](CC(C)C)NC(=O)[C@H](CCC(=O)O)NC(=O)CNC(=O)[C@H](CC(C)C)NC(=O)[C@H](Cc7c[nH]cn7)NC(=O)[C@H](Cc7c[nH]c8ccccc78)NC(=O)[C@H](C)NC6=O)C(=O)N[C@@H]([C@@H](C)O)C(=O)N6CCC[C@@H]6C(=O)N5C4)nn3)[C@@H](O)[C@H](O)[C@@H]2O)cc1` (stereo partly drawn) [Compound 10] gave an EC50 in experiment [1] below 50 nM.

Consider `COc1ccc(OC2O[C@H](CCP(=O)(O)Cc3cn(CCOCCOCCOCCOCCOCCOCCOCCOCCC(=O)N[C@H]4C[C@H]5C(=O)N[C@@H](CC(=O)O)C(=O)N[C@H]6CSSC[C@H](NC(=O)[C@H](Cc7c[nH]c8ccccc78)NC(=O)[C@@H](C(C)C)NC(=O)[C@@H](CC(C)C)NC(=O)[C@H](CCC(=O)O)NC(=O)CNC(=O)[C@@H](CC(C)C)NC(=O)[C@H](Cc7cnc[nH]7)NC(=O)[C@H](Cc7c[nH]c8ccccc78)NC(=O)[C@H](C)NC6=O)C(=O)N[C@H]([C@@H](C)O)C(=O)N6CCC[C@@H]6C(=O)N5C4)nn3)[C@@H](O)[C@H](O)[C@@H]2O)cc1` (stereo partly drawn) [Compound 11], for which the EC50 in experiment [1] (setting [5]) is below 50 nM.

Regarding `CC(C)C[C@H]1NC(=O)[C@H](Cc2c[nH]cn2)NC(=O)[C@H](Cc2c[nH]c3ccccc23)NC(=O)[C@H](C)NC(=O)[C@@H]2CSSC[C@H](NC(=O)[C@H](Cc3c[nH]c4ccccc34)NC(=O)[C@@H](C(C)C)NC(=O)[C@@H](CC(C)C)NC(=O)[C@H](CCC(=O)O)NC(=O)CNC1=O)C(=O)N[C@H]([C@@H](C)O)C(=O)N1CCC[C@@H]1C(=O)N1C[C@@H](NC(=O)CCOCCOCCOCCOCCOCCOCCOCCOCCn3cc(CCCCNC(=O)Nc4ccc5c(c4)Cc4cc(O[C@H]6O[C@H](CCP(=O)(O)O)[C@@H](O)[C@H](O)[C@@H]6O)ccc4-5)nn3)C[C@H]1C(=O)N[C@@H](CC(=O)O)C(=O)N2` [Compound 12], the EC50 in the experiment on K562 cells is below 50 nM. Further, the “degradation” value in the experiment on IgG was “degradation of IgG”.

B1: Compound 5 (peptide)
peptide: cyclo(ELVWCT[dP]PDCAWHLG)
modifications: disulfide 5-10; not fully specified (residue 8); also: trivalent linker structure not given here
Regarding B1, the EC50 was below 50 nM in experiment [2]; > 50 nM and < 250 nM in experiment [3].

B2: Compound 12 (peptide)
peptide: cyclo(ELVWCT[dP]PDCAWHLG)
modifications: disulfide 5-10; not fully specified (residue 8); also: one triazole-linked A83 group on the PEG8 linker
Turning to B2, the EC50 in experiment [2] and in experiment [4] was below 50 nM in each case.

B3: Compound 2 (peptide)
peptide: cyclo(ELVWCT[dP]PDCAWHLG)
modifications: disulfide 5-10; not fully specified (residue 8); also: trivalent linker structure not given here
On to B3, for which the EC50 in experiment [2] and in experiment [4] was below 50 nM throughout.

B4: Compound 8 (peptide)
peptide: cyclo(ELVWCT[dP]PDCAWHLG)
modifications: disulfide 5-10; not fully specified (residue 8); also: one triazole-linked A20 group on the PEG8 linker
B4: the EC50 in experiment [2] and in experiment [4] was below 50 nM throughout.

In general, EC50 refers to the midpoint of the concentration-response curve.
